The text below walks through data of patent US20060134204A1, “Complexes made using low solubility drugs” (priority 2004, published 2006).

SMILES strings stand for the structures.

The series in a line: Crystallinity of the complex by powder X-ray diffraction (XRD). The class given is physicochemical. The conditions noted are these: PANalytical X'Pert Pro, percent crystallinity. An excerpt:
“Crystallinity” means the degree to which a chemical entity is present in a crystalline form. This degree can be expressed in units such as percent crystallinity. X-Ray diffraction (“XRD”) techniques can be used to determine crystallinity of substances, including inventive substances. From an XRD spectra, the percent crystallinity may be calculated as: Percent crystallinity=(sum of net intensity)/(sum of observed intensity) where the sum of net intensity=integrated area of peak intensity above the baseline, and sum of observed intensity=integrated area of total peak intensity including sum of net intensity and integrated area under baseline. Additional information about use of XRD to determine percent crystallinity may be found in R. Jenkins et al., Introduction to X-Ray Powder Diffractometry, John Wiley & Sonds, Inc. (1996). Qualitative determination of crystallinity of the complex of Example 1 was conducted with PANalytical X'Pert Pro Powder X-ray Diffraction (XRD) System. […] The crystallinity of sodium lauryl sulfate was determined to be 32%, and the crystallinity of the physical mixture was determined to be 50%.

As for `OCCC#Cc1nc(-c2ccc(F)cc2)c(-c2ccncc2)n1CCCc1ccccc1` [4-(4-Fluorophenyl)-2-(4-hydroxy-1-butynyl)-1-(3-phenylpropyl)-5-(4-pyridyl)imidazole], the crystallinity is 63%.

Compound `CCCCCCCCCCCCOS(=O)(=O)[O-].[Na+]` [sodium lauryl sulfate] returned a crystallinity of 32%.
